# Tested on: male ddY mice
# Test: Stamina improvement: swimming until exhaustion in a running water pool
# Type: in vivo
# Settings: material 10 mg/ml, oral 10 ml/kg once a day for seven days; 10 animals per group; relative value, Comparative Example 21 (control) = 100
# Description: The test solution was given to mice to check for the influence on the improvement of stamina. Five-week-old male ddY mice (purchased from Japan SLC Co. Ltd.) were raised, letting them be free to take solid feed (CE-2, Japan Clare Co. Ltd., Tokyo) and water (10 mice per group). […] After one week of preparatory raising and swim training, they were allowed to freely take ordinary solid feed and water. […] On the day just before start of giving the test solution and on the 7th day after start of giving the test solution, the experimental animals were let to swim until exhaustion in the pool (velocity at center: 23.6 cm/sec.) to measure the swimming duration and to obtain the elongation of the swimming duration in seven days.
row,Compound,"Elongation of swimming duration (%), without chicken extract powder [%]"
1,"C/C=C1/[C@H](O[C@@H]2O[C@H](CO)[C@@H](O)[C@H](O)[C@H]2O)OC=C(C(=O)OC)[C@H]1CC(=O)OCCc1ccc(O)c(O)c1 [Comparative Example 13, oleuropein]",120
2,proanthocyanidin [Comparative Example 11],110
3,tocotrienol [Comparative Example 15],120
4,"C[N+](C)(C)CC(O)CC(=O)[O-] (stereo not drawn) [Comparative Example 8, carnitine]",110
5,antocyanine [Comparative Example 12],120
6,heme iron [Comparative Example 10],110
7,"O=C(O)CC(O)(CC(=O)O)C(=O)O [Comparative Example 7, citric acid]",110
8,"COC1=C(OC)C(=O)C(C/C=C(\C)CC/C=C(\C)CC/C=C(\C)CC/C=C(\C)CC/C=C(\C)CC/C=C(\C)CC/C=C(\C)CC/C=C(\C)CC/C=C(\C)CCC=C(C)C)=C(C)C1=O [Comparative Example 14, ubiquinone (CoQ10)]",110
9,"O=C(O)CCCCC1CCSS1 (stereo not drawn) [Comparative Example 9, thioctic acid]",110
10,"CN(CC(=O)O)C(=N)N [Comparative Example 1, creatine]",110
11,"N=C(N)NCCC[C@H](N)C(=O)O [Comparative Example 2, arginine]",110
12,"Cn1c(=O)c2c(ncn2C)n(C)c1=O [Comparative Example 6, caffeine]",110
